These results are taken from BindingDB's records for patent US12486274 (Verge Analytics, 2025).

For this experiment, the target named is 1-phosphatidylinositol 3-phosphate 5-kinase (Homo sapiens, UniProt Q9Y2I7). Nature of the experiment: Inhibition of PIKfyve. As for the experimental part:
The kinase reactions were assembled in 384-well plates (Greiner) in a total volume of […] as follows. Kinase protein was pre-diluted in an assay buffer comprising 25 mM HEPES, pH 7.5, 1 mM DTT, 2.5 mM MgCl2, and 2.5 mM MnCl2, and 0.005% Triton X-100, and dispensed into a 384-well plate (10 μL per well). Test compounds were serially pre-diluted in DMSO and added to the protein samples by acoustic dispensing (Labcyte Echo). The concentration of DMSO was equalized to 1% in all samples. All test compounds were tested at 12 concentrations. Apilimod was used as a reference compound and was tested in identical manner in each assay plate. Control samples (0%-inhibition, in the absence of inhibitor, DMSO only) and 100%-inhibition (in the absence of enzyme) were assembled in replicates of four and were used to calculate %-inhibition in the presence of compounds. The reactions were initiated by addition of 10 μL of 2× PI3P/PS substrate supplemented with ATP. The final concentration of enzyme was 2 nM, the final concentration of ATP was […], and the final concentration of PI3P/PS substrate was 1 μM (PI3P). The kinase reactions were allowed to proceed for 3 h at room temperature. Following incubation, the reactions were quenched by addition of […] of termination buffer (100 mM HEPES, pH 7.5, 0.01% Triton X-100, 20 mM EDTA).

For orientation: IC50 means the concentration needed to halve the response being measured. Read a high IC50 as weaker potency.

1-phosphatidylinositol 3-phosphate 5-kinase, sequence (Q9Y2I7 whole entry): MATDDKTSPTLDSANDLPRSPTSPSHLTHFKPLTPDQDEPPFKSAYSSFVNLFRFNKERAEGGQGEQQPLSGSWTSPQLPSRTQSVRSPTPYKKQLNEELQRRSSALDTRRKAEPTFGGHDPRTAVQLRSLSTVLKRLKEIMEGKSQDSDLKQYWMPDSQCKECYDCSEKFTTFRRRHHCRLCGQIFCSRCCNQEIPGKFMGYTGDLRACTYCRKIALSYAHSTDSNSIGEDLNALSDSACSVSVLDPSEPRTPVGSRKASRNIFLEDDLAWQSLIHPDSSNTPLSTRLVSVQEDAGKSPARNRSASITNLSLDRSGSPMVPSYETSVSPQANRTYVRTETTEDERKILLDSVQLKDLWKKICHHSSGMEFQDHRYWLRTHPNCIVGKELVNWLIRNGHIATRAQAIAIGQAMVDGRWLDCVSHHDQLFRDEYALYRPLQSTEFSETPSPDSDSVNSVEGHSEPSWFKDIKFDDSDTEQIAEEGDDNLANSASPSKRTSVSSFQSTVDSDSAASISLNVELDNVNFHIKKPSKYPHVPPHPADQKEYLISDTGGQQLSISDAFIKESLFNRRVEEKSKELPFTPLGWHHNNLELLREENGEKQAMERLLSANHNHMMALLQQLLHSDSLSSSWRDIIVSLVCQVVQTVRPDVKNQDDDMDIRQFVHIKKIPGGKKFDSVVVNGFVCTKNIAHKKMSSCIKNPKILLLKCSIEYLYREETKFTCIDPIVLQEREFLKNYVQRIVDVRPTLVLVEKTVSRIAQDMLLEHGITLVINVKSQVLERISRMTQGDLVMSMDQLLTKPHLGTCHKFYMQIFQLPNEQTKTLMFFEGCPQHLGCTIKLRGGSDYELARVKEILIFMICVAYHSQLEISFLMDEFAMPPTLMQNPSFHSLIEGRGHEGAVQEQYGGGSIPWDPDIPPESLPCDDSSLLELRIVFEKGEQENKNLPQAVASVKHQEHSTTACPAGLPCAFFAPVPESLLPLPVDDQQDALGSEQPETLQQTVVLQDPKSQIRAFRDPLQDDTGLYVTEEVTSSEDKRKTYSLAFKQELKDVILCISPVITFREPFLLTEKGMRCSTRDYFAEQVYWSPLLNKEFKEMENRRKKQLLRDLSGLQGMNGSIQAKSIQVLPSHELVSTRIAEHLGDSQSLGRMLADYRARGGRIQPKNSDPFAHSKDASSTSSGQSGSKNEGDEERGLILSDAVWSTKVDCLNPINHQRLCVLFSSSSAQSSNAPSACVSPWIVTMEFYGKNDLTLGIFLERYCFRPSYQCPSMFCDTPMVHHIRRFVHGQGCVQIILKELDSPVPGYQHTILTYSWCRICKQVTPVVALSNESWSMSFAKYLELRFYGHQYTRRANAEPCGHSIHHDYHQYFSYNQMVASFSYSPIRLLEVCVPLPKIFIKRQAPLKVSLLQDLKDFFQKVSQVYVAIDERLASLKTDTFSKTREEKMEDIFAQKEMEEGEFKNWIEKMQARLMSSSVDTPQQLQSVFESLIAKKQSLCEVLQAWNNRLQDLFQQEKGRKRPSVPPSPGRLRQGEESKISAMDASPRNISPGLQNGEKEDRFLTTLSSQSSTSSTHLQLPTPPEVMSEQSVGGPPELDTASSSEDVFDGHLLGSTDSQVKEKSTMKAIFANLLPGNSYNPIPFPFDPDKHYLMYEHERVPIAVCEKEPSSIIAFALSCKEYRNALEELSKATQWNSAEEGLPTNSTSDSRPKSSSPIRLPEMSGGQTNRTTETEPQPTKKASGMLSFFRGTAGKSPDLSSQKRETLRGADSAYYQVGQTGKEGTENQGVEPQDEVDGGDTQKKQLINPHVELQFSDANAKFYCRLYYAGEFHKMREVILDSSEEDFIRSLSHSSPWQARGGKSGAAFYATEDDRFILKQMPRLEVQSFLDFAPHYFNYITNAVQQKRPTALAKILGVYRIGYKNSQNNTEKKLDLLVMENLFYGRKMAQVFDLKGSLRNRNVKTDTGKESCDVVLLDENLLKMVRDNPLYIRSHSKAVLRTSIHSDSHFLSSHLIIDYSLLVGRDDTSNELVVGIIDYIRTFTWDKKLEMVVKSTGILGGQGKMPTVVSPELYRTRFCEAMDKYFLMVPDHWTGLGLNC

In turn, `Nc1ccc(-c2cc3nc(-n4ccc(-c5ccccc5)n4)cc(N4CCOCC4)n3n2)cn1` [US12486274, Compound 98] had an IC50 of 29.9 nM.
